Measurements reported in patent publication US8946426B2, “Substituted bicyclic heterocyclic compounds as gamma secretase modulators” (Janssen Pharmaceuticals, Inc., priority 2009, dated 2015).

What was measured:
Aβ42 [1] = assay: In vivo efficacy: Aβ42 lowering in brain after single oral dose (Table 8); settings: mouse brain soluble fraction, ELISA, compared to untreated animals
From the text: To determine whether acute administration of an Aβ42 lowering agent would reduce Aβ42 levels in vivo, non-transgenic rodents, e.g. mice or rats were used. Alternatively, two to three month old Tg2576 mice expressing APP695 containing the “Swedish” variant can be used or a transgenic mouse model developed by Dr. Fred Van Leuven (K.U.Leuven, Belgium) and co-workers, with neuron-specific expression of a clinical mutant of the human amyloid precursor protein [V7171] (Moechars et al., 1999 J. Biol. Chem. 274, 6483). Young transgenic mice have high levels of Aβ in the brain but no detectable Aβ deposition. At approximately 6-8 months of age, the transgenic mice start to display spontaneous, progressive accumulation of β-amyloid (Aβ) in the brain, eventually resulting in amyloid plaques within the subiculum, hippocampus and cortex. Animals treated with the Aβ42 lowering agent were examined and compared to those untreated or treated with vehicle and brain levels of soluble Aβ42 and total Aβ would be quantitated by standard techniques, for example, using ELISA. Treatment periods varied from hours to days and were adjusted based on the results of the Aβ42 lowering once a time course of onset of effect could be established.
A typical protocol for measuring Aβ42 lowering in vivo is shown but it is only one of many variations that could be used to optimize the levels of detectable Aβ. For example, Aβ42 lowering compounds were formulated in 20% of Captisol® (a sulfobutyl ether of β-cyclodextrin) in water or 20% hydroxypropyl β cyclodextrin. The Aβ42 lowering agents were administered as a single oral dose or by any acceptable route of administration to overnight fasted animals. After four hours, the animals were sacrificed and Aβ42 levels were analysed.
Blood was collected by decapitation and exsanguinations in EDTA-treated collection tubes. Blood was centrifuged at 1900 g for 10 min at 4° C. and the plasma recovered and flash frozen for later analysis. The brain was removed from the cranium and hindbrain. The cerebellum was removed and the left and right hemisphere were separated. The left hemisphere was stored at −18° C. for quantitative analysis of test compound levels. The right hemisphere was rinsed with phosphate-buffered saline (PBS) buffer and immediately frozen on dry ice and stored at −80° C. until homogenization for biochemical assays.
Mouse brains were resuspended in 10 volumes of 0.4% DEA (diethylamine)/50 mM NaCl pH 10 (for non-transgenic animals) or 0.1% 3-[(3-cholamidopropyl)-dimethyl-ammonio]-1-propanesulfonate (CHAPS) in tris buffered saline (TBS) (for transgenic animals) containing protease inhibitors (Roche-11873580001 or 04693159000 per gram of tissue, e.g. for 0.158 g brain, add 1.58 ml of 0.4% DEA. All samples were sonicated for 30 sec on ice at 20% power output (pulse mode). Homogenates were centrifuged at 221.300×g for 50 min. The resulting high speed supernatants were then transferred to fresh tubes and were optionally further purified before the next step. A portion of the supernatant was neutralized with 10% 0.5 M Tris-HCl and this was used to quantify Aβtotal.
The obtained supernatants were purified with Water Oasis HLB reverse phase columns (Waters Corp., Milford, Mass.) to remove non-specific immunoreactive material from the brain lysates prior subsequent Aβ detection. Using a vacuum manifold, all solutions were passed through the columns at a rate of approximately 1 ml per minute, so the vacuum pressure was adjusted accordingly throughout the procedure. Columns were preconditioned with 1 ml of 100% MeOH, before equilibration with 1 ml of H2O. Non-neutralized brain lysates were loaded onto the columns. The loaded samples were then washed twice with the first wash performed with 1 ml of 5% MeOH, and the second wash with 1 ml of 30% MeOH. Finally, the Aβ was eluted from the columns and into 100×30 mm glass tubes, with a solution of 90% MeOH with 2% NH4OH. […]

Aβ42 [2] = assay: Method 1: Aβ42 sandwich ELISA in supernatant of SKNBE2 cells carrying APP 695-wild type (Tables 7a, 7b); type: cell-based
Method in brief: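 IC50 values were derived with a 4-parameter equation, fitting either percent inhibition or percent of compound-free Aβ42 as the control. The Aβ42 came from supernatants of APP695 wild-type SKNBE2 cells treated for 18 hours. It was measured by ELISA with anti-Aβ42 capture, biotinylated 3D6 and TMB absorbance at 450 nm.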

[3] = Table 7b, averaged IC50, non-linear regression of percentage of control vs log concentration, 4-parameter equation
[4] = Homo sapiens, SKNBE2, Table 7b, averaged IC50, non-linear regression of percentage of control vs log concentration, 4-parameter equation
[5] = Homo sapiens, Table 7a, SKNBE2 cells, compounds 18 h, XLfit 4-parameter fit of percent inhibition, top/bottom fixed to 100/0, hill slope 1

IC50 (Aβ42 [2]; [3])	IC50 (Aβ42 [2]; [4])	IC50 (Aβ42 [2]; [5])	Compound	Aβ42 (% Ctrl)_Mean (Aβ42 [1])
3550 nM	–	–	COc1cc(Nc2nc(C(F)(F)F)cn3cc(C)nc23)ccc1-c1cnc(C)o1 [Compound 170]	99 % Ctrl
–	71 nM	72 nM	COc1cc(Nc2cccc3c2nc(CCC(F)(F)F)n3C)ccc1-c1ocnc1C [Compound 11]	91 % Ctrl
–	355 nM	358 nM	Cc1ncoc1-c1ccc(Nc2cccc3c2nc(-c2ccc(F)cc2)n3C)nc1 [Compound 10]	106 % Ctrl
195 nM	–	–	COc1cc(Nc2cc(C(F)(F)F)nn3cc(C)nc23)ccc1-c1cnc(C)o1 [Compound 195]	89 % Ctrl
7 nM	–	–	COc1cccc(-c2nc3c(Nc4ccc(-c5cnc(C)o5)nc4)cc(F)cc3n2C)c1 [Compound 105]	104 % Ctrl
–	9 nM	11 nM	COc1cc(Nc2cccc3c2nc(-c2ccc(F)cc2)n3C)ccc1-c1cnc(C)o1 [Compound 16]	58 % Ctrl
–	21 nM	23 nM	COc1cc(Nc2cccc3c2nc(-c2ccc(F)cc2)n3C)ccc1-c1ocnc1C [Compound 12]	56 % Ctrl
–	> 10000 nM	–	Cc1ncc(-c2ccc(Nc3nccc4c3nc(-c3ccc(F)cc3)n4C)cc2F)o1 [Compound 17]	106 % Ctrl
–	35 nM	–	Cc1ncc(-c2ccc(Nc3cccc4c3nc(-c3ccc(F)cc3)n4C(C)C)cn2)o1 [Compound 18]	54 % Ctrl
162 nM	–	–	COc1cc(Nc2cncc3c2nc(-c2ccc(F)cc2)n3C)ccc1-c1cnc(C)o1 [Compound 186]	52 % Ctrl
